In patent US12649750B2, “Macrocyclic compounds, compositions, and methods of using thereof” (Sionna Therapeutics Inc., priority 2022, dated 2026):

Key:
CFTR = biological target: T1, CFTR (Homo sapiens, UniProt P13569, DEL508-508); experiment: TECC24 AUC fold over DMSO @10 μM, CFTR-mediated transepithelial chloride transport in CF-HBE cells; format: cell-based; conditions: test agent AUC divided by DMSO vehicle AUC, primary CF-HBE cells, ΔF508 homozygous donor, 48 hours incubation
T1 construct: Primary human bronchial epithelial cells from a ΔF508 homozygous CF donor; host or cells: primary human bronchial epithelial cells (CF-HBE), ΔF508 homozygous donor
T1 sequence (P13569 with tags, fused parts or gaps DEL508-508): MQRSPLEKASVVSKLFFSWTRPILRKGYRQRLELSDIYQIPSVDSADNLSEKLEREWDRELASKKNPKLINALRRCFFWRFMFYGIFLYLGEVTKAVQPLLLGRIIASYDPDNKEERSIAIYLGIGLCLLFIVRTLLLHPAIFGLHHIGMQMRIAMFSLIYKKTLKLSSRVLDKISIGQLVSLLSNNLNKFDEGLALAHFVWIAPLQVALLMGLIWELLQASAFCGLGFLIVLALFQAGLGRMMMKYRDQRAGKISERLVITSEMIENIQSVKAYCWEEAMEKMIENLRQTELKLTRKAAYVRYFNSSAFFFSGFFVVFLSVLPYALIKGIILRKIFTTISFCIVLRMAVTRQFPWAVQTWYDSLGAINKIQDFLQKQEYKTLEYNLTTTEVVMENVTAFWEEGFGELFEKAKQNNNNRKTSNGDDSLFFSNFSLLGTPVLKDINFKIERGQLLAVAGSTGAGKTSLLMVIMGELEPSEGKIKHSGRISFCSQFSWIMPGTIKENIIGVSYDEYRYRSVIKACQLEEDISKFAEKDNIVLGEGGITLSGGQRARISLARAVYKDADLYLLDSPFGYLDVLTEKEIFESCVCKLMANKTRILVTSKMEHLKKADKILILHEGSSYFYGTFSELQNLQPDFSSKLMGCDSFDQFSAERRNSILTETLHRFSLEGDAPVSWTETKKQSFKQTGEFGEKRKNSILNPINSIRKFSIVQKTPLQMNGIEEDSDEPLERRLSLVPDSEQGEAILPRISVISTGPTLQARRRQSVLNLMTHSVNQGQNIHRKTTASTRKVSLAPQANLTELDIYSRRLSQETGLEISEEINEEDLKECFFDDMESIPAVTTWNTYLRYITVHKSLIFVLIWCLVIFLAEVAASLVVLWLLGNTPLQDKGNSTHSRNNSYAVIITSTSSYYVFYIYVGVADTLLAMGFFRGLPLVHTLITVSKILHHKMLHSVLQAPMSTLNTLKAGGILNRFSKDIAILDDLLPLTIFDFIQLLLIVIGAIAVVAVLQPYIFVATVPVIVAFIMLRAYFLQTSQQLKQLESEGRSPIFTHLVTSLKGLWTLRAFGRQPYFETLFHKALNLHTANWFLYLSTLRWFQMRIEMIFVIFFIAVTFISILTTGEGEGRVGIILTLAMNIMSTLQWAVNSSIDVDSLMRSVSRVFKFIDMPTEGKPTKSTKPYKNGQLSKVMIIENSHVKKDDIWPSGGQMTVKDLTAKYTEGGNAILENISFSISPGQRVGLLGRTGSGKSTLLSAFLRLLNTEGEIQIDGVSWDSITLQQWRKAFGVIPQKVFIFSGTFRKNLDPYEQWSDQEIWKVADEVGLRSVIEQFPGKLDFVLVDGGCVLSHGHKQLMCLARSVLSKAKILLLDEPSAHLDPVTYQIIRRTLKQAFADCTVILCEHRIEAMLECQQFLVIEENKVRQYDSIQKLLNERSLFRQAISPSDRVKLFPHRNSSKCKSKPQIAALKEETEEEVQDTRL
Procedure: Example 387. TECC24 AUC Fold Over DMSO @10 μM
The effects of a test agent on CFTR-mediated transepithelial chloride transport is measured using TECC24 recording analysis. Test agents are solubilized in DMSO. Solubilized test agents are mixed with incubation medium containing DMEM/F12, Ultroser G (2%; Crescent Chemical, catalog #67042), Hyclone Fetal Clone II (2%; GE Healthcare, catalog #SH30066.02), bovine brain extract (0.25%; Lonza, catalog #CC-4098), insulin (2.5 μg/mL), IL-13 (10 ng/mL), hydrocortisone (20 nM), transferrin (2.5 μg/mL), triiodothyronine (500 nM), ethanolamine (250 nM), epinephrine (1.5 μM), phosphoethanolamine (250 nM), and retinoic acid (10 nM). Primary human bronchial epithelial cells from a ΔF508 homozygous CF donor (CF-HBE cells; from University of North Carolina Cystic Fibrosis Tissue Procurement Center), grown on Transwell HTS 24-well cell culture inserts (Costar, catalog #3378), are exposed to test agents or controls dissolved in incubation medium. The CF-HBE cells are cultured at 36.5° C. for 48 hours before TECC24 recordings are performed in the presence or absence of test agent, a positive control or vehicle (DMSO).
Following incubation, the transwell cell culture inserts containing the test agent or control-treated CF-HBE cells are loaded onto a TECC24 apparatus (TECC v7 or MTECC v2; EP Design) to record the transepithelial voltage (VT) and resistance (TEER) using 4 AgCl electrodes per well configured in current-clamp mode. The apical and basolateral bath solutions both contain (in mM) 140 NaCl, 5 KCl, 2 CaCl2, 1 MgCl2, 10 Hepes, and 10 glucose (adjusted to pH 7.4 with NaOH). To inhibit basal Na+ absorption, the ENaC inhibitor benzamil (10 μM) is added to the bath. Then, the adenylate cyclase activator, forskolin (10 μM), is added to the bath to activate CFTR. The forskolin-stimulated Cl— transport is halted by addition of CFTR inhibitor-172 (20 μM) to the bath at the end of the experiment to confirm specificity. VT and TEER recordings are digitally acquired at routine intervals using TECC or MTECC software (EP Design). VT and TEER are transformed into equivalent transepithelial Cl— current (IEQ), and the Area Under the Curve (AUC) of the IEQ time course between forskolin and CFTR inhibitor-172 addition is generated using Excel (Microsoft). Efficacy is expressed as the ratio of the test agent AUC divided by vehicle AUC. EC50s based on AUC are generated using the non-linear regression log(agonist) vs. response function in Prism software (Graphpad) with HillSlope fixed=1.
If a test agent increases the AUC of the forskolin-stimulated IEQ relative to vehicle in CF-HBE cells, and this increase is inhibited by CFTR inhibitor-172, then the test agent is considered a CFTR corrector. TECC assay efficacy is expressed as the ratio of the test agent AUC divided by DMSO vehicle AUC. As set forth in Table 2 below, a TECC value less than 12 is marked “A”; a value between 12-20 is marked “B”; a value between 20 and 80 is marked “C”. […]

NBD1 = biological target: T2, NBD1 (Homo sapiens, UniProt P13569); experiment: Aggregation analysis using differential static light scattering (DSLS), thermal stability of NBD1 (ΔTagg); format: binding; conditions: ΔTagg versus DMSO control, NBD1 0.2 mg/ml
T2 construct: Purified recombinant NBD1 was produced using previously described methods; made in house
T2 sequence (P13569 423-646 limits assumed): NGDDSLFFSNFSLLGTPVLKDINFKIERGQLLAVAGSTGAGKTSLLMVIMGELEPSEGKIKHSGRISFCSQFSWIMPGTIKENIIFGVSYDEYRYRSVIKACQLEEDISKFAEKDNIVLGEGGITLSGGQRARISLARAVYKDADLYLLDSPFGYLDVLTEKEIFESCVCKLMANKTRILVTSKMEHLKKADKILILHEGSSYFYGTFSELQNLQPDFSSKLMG
Summary of the method: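 Purified recombinant NBD1 at 0.2 mg/ml in Tris buffer pH7.6 with 2 mM ATP, 5 mM MgCl2, 2 mM DTT and 1% glycerol was mixed with DMSO-dissolved compounds under mineral oil. Plates were heated at 1° C. per minute to 70° C., light scattering imaged every 0.5° C.; Tagg from curve inflection, minus DMSO-control mean.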

Row | SMILES | TECC (AUC, 10 μM) (CFTR) | DSLS 3D (100 μM ΔT) (NBD1)
1 | Cn1nc2nc1-c1cc(ccc1F)Oc1c(F)cc3[nH]ccc3c1CCS(=O)(=O)CC(C)(C)CCCC2(C)c1cccc(CC2CCN(O)C2=O)c1 (stereo not shown) [Compound 199, 3-[[3-(22,28-Difluoro-3,6,10,10-tetramethyl-12,12-dioxo-24-oxa-12λ6-thia-3,4,19,30-tetrazapentacyclo[23.3.1.12,5.015,23.016,20]triaconta-1(29),2(30),4,15,17,20,22,25,27-nonaen-6-yl)phenyl]methyl]-1-hydroxy-pyrrolidin-2-one] | C (a value between 20 and 80 is marked “C”) | C (a value greater than 10 °C and less than or equal to 25 °C is marked “C”)
2 | C[C@H](Cc1cccc(C2(C)CCCC(C)(C)CS(=O)(=O)CCc3c(c(F)cc4[nH]ccc34)[S+]([O-])c3ccc(F)c(c3)-c3nc2nn3C)n1)C(=O)O (single isomer, unassigned) [Compound 181D] | A (a TECC value less than 12 is marked “A”) | C (a value greater than 10 °C and less than or equal to 25 °C is marked “C”)
3 | COCC(Cc1cccc(C2(C)CCCC(C)(C)CS(=O)(=O)CCc3c(c(F)cc4[nH]ccc34)Oc3ccc(F)c(c3)-c3nc2nn3C)c1)C(=O)O (single isomer, unassigned) [Compound 153B, 2-[[3-(22,28-difluoro-3,6,10,10-tetramethyl-12,12-dioxo-24-oxa-12λ6-thia-3,4,19,30-tetrazapentacyclo[23.3.1.12,5.015,23.016,20]triaconta-1(29),2(30),4,15,17,20,22,25,27-nonaen-6-yl)phenyl]methyl]-3-methoxy-propanoic Acid] | C (a value between 20 and 80 is marked “C”) | A (an ΔTagg value less than or equal to 5 °C is marked “A”)
4 | CC1(C)CCCC(C)(c2cccc(CCC(=O)O)c2)c2c[nH]c(n2)-c2cc(ccc2F)Oc2c(F)cc3[nH]ccc3c2CCS(=O)(=O)C1 (single isomer, unassigned) [Compound 27A, 3-[3-(22,28-difluoro-6,10,10-trimethyl-12,12-dioxo-24-oxa-12lambda6-thia-3,19,30-triazapentacyclo[23.3.1.12,5.015,23.016,20]triaconta-1(29),2,4,15,17,20,22,25,27-nonaen-6-yl)phenyl]propanoic acid] | A (a TECC value less than 12 is marked “A”) | B (a value above 5 °C and less than or equal to 10 °C is marked “B”)
5 | CC1(C)CCCC(c2cccc(CCC(=O)O)c2)n2ccc(n2)-c2cccc(c2)Oc2c(F)cc3[nH]ccc3c2CCS(=O)(=O)C1 (stereo not shown) [Compound 23, 3-[3-(22-Fluoro-10,10-dimethyl-12,12-dioxo-24-oxa-12lambda6-thia-5,19,30-triazapentacyclo[23.3.1.12,5.015,23.016,20]triaconta-1(29),2(30),3,15,17,20,22,25,27-nonaen-6-yl)phenyl]propanoic Acid] | B (a value between 12-20 is marked “B”) | C (a value greater than 10 °C and less than or equal to 25 °C is marked “C”)
6 | C/C(=C\c1cc(F)cc(C2(C)CCCC(C)(C)CS(=O)(=O)CCc3c(c(F)c(F)c4[nH]ccc34)Oc3ccc(F)c(c3)-c3nc2nn3C)c1)C(=O)O (single isomer, unassigned) [Compound 17A, (E)-3-(3-fluoro-5-((Z)-26,46,47-trifluoro-11,9,9,13-tetramethyl-7,7-dioxido-11H,41H-3-oxa-7-thia-4(5,4)-indola-1(5,3)-triazola-2(1,3)-benzenacyclotridecaphane-13-yl)phenyl)-2-methylacrylic acid] | A (a TECC value less than 12 is marked “A”) | B (a value above 5 °C and less than or equal to 10 °C is marked “B”)
7 | Cn1nc2nc1-c1cc(ccc1F)Oc1c(F)cc3[nH]ccc3c1CCS(=O)(=O)CC(C)(C)CCCC2(C)c1cccc(CC2CC(=O)N(O)C2=O)c1 (single isomer, unassigned) [Compound 195B, 3-[[3-(22,28-difluoro-3,6,10,10-tetramethyl-12,12-dioxo-24-oxa-12λ6-thia-3,4,19,30-tetrazapentacyclo[23.3.1.12,5.015,23.016,20]triaconta-1(29),2(30),4,15,17,20,22,25,27-nonaen-6-yl)phenyl]methyl]-1-hydroxy-pyrrolidine-2,5-dione] | C (a value between 20 and 80 is marked “C”) | C (a value greater than 10 °C and less than or equal to 25 °C is marked “C”)
8 | CC(O)Cn1nc2nc1-c1cc(ccc1F)Oc1c(F)cc3[nH]ccc3c1CCS(=O)(=O)CC(C)(C)CCC[C@]2(C)c1cccc(C[C@@H](C)C(=O)O)c1 (mixture of isomers) [Compound 219, (2R)-3-[3-[(6R)-22,28-Difluoro-3-(2-hydroxypropyl)-6,10,10-trimethyl-12,12-dioxo-24-oxa-12λ6-thia-3,4,19,30-tetrazapentacyclo[23.3.1.12,5.015,23.016,20]triaconta-1(29),2(30),4,15,17,20,22,25,27-nonaen-6-yl]phenyl]-2-methyl-propanoic acid] | C (a value between 20 and 80 is marked “C”) | C (a value greater than 10 °C and less than or equal to 25 °C is marked “C”)
9 | CC1(C)CCCC(C)(c2cccc(OCC(=O)O)c2)c2cnc([nH]2)-c2cc(ccc2F)Oc2c(F)cc3[nH]ccc3c2CCS(=O)(=O)C1 (single isomer, unassigned) [Compound 54A, 2-[3-(22,28-difluoro-6,10,10-trimethyl-12,12-dioxo-24-oxa-12lambda6-thia-3,19,30-triazapentacyclo[23.3.1.12,5.015,23.016,20]triaconta-1(29),2,4,15,17,20,22,25,27-nonaen-6-yl)phenoxy]acetic acid] | C (a value between 20 and 80 is marked “C”) | C (a value greater than 10 °C and less than or equal to 25 °C is marked “C”)
10 | CC(CCc1cccc(C2(C)CCCC(C)(C)CS(=O)(=O)CCc3c(c(F)cc4[nH]ccc34)Oc3ccc(F)c(c3)-c3nc2nn3C)c1)C(=O)O (stereo not shown) [Compound 160, 4-[3-(22,28-Difluoro-3,6,10,10-tetramethyl-12,12-dioxo-24-oxa-12λ6-thia-3,4,19,30-tetrazapentacyclo[23.3.1.12,5.015,23.016,20]triaconta-1(29),2(30),4,15,17,20,22,25,27-nonaen-6-yl)phenyl]-2-methyl-butanoic Acid] | A (a TECC value less than 12 is marked “A”) | C (a value greater than 10 °C and less than or equal to 25 °C is marked “C”)
11 | Cn1nc2nc1-c1cc(ccc1F)[S+]([O-])c1c(F)cc3[nH]ccc3c1CCS(=O)(=O)CC(C)(C)CCCC2(C)c1cccc(/C=C/C(=O)O)c1 (single isomer, unassigned) [Compound 210D, (E)-3-[3-(22,28-difluoro-3,6,10,10-tetramethyl-12,12,24-trioxo-12λ6,24λ4-dithia-3,4,19,30-tetrazapentacyclo[23.3.1.12,5.015,23.016,20]triaconta-1(29),2(30),4,15,17,20,22,25,27-nonaen-6-yl)phenyl]prop-2-enoic Acid] | C (a value between 20 and 80 is marked “C”) | –
12 | C[C@H](Cc1cccc(C2(C)CCCC(C)(C)CS(=O)(=O)CCc3c(c(F)cc4[nH]ccc34)Oc3ccc(F)c(c3)-c3nc2nn3C)c1)C(=O)OCCN1CCN(C)CC1 (single isomer, unassigned) [Compound 182] | A (a TECC value less than 12 is marked “A”) | –
